PubChem BioAssay AID256 (DTP/NCI, 2004)
Values joined by “and” are separate entries in the source; they are usually repeats but may differ in a detail not shown here. Identical values can stand only once. Inconclusive results and toxic doses are left out. Rule for the calls: active = survival T/C of 150% or more; inactive = T/C below 125% in these data.

Tested on: CD2F1 mice, L1210 leukemia ip, survival T/C
Assay: NCI In Vivo Anticancer Drug Screen. Data for tumor model L1210 Leukemia (intraperitoneal) in CD2F1 (CDF1) mice
Conditions: higher = longer survival
How it was run: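 Transplantable tumor in mice; compound-treated vs vehicle-treated groups. Read-out = treated/control ratio of the measured endpoint.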

[1] = endpoint: mean survival time, dose: 100.0 mg/kg/injection, schedule: Q04DX003 (ip), vehicle: saline with Tween-80
[2] = endpoint: mean survival time, dose: 200.0 mg/kg/injection, schedule: Q04DX003 (ip), vehicle: saline with Tween-80
[3] = endpoint: mean survival time, dose: 400.0 mg/kg/injection, schedule: Q04DX003 (ip), vehicle: saline with Tween-80
[4] = endpoint: mean survival time, dose: 100.0 mg/kg/injection, schedule: Q01DX001 (ip), vehicle: saline with Tween-80
[5] = endpoint: mean survival time, dose: 200.0 mg/kg/injection, schedule: Q01DX001 (ip), vehicle: saline with Tween-80
[6] = endpoint: mean survival time, dose: 400.0 mg/kg/injection, schedule: Q01DX001 (ip), vehicle: saline with Tween-80
[7] = endpoint: mean survival time, dose: 25.0 mg/kg/injection, schedule: Q04DX003 (ip), vehicle: saline
[8] = endpoint: mean survival time, dose: 50.0 mg/kg/injection, schedule: Q04DX003 (ip), vehicle: saline
[9] = endpoint: mean survival time, dose: 100.0 mg/kg/injection, schedule: Q01DX001 (ip), vehicle: saline
[10] = endpoint: mean survival time, dose: 200.0 mg/kg/injection, schedule: Q01DX001 (ip), vehicle: saline
[11] = endpoint: mean survival time, dose: 400.0 mg/kg/injection, schedule: Q01DX001 (ip), vehicle: saline
[12] = endpoint: mean survival time, dose: 100.0 mg/kg/injection, schedule: Q04DX003 (ip), vehicle: saline
[13] = endpoint: mean survival time, dose: 200.0 mg/kg/injection, schedule: Q04DX003 (ip), vehicle: saline
[14] = endpoint: mean survival time, dose: 400.0 mg/kg/injection, schedule: Q04DX003 (ip), vehicle: saline

Measured: T/C

Cc1sc(C)c(CCl)c1CCl
inactive: endpoint: mean survival time, dose: 12.5 mg/kg/injection, schedule: Q01DX009 (ip), vehicle: saline with Tween-80 104 % of control | endpoint: mean survival time, dose: 25.0 mg/kg/injection, schedule: Q01DX009 (ip), vehicle: saline with Tween-80 108 % of control | endpoint: mean survival time, dose: 50.0 mg/kg/injection, schedule: Q01DX009 (ip), vehicle: saline with Tween-80 98 % of control

CC1NC(=O)OC1(C)C(C)(C)C (stereo not drawn)
inactive: endpoint: mean survival time, dose: 5.0 mg/kg/injection, schedule: Q01DX009 (ip), vehicle: saline with Tween-80 94 % of control | endpoint: mean survival time, dose: 10.0 mg/kg/injection, schedule: Q01DX009 (ip), vehicle: saline with Tween-80 104 % of control | endpoint: mean survival time, dose: 20.0 mg/kg/injection, schedule: Q01DX009 (ip), vehicle: saline with Tween-80 102 % of control

Cc1cccc(=O)n1Cc1ccccc1
inactive: [1] 95 % of control | [2] 95 % of control | [3] 95 % of control

COc1cc(N=Nc2ccc(C(=O)O)cc2)ccc1N(CCCl)CCCl
inactive: endpoint: mean survival time, dose: 25.0 mg/kg/injection, schedule: Q04DX003 (ip), vehicle: Klucel (hydroxypropylcellulose) (HPC) 106 % of control and 109 % of control | endpoint: mean survival time, dose: 50.0 mg/kg/injection, schedule: Q04DX003 (ip), vehicle: Klucel (hydroxypropylcellulose) (HPC) 106 % of control and 112 % of control | endpoint: mean survival time, dose: 100.0 mg/kg/injection, schedule: Q04DX003 (ip), vehicle: Klucel (hydroxypropylcellulose) (HPC) 113 % of control and 98 % of control

CN(Cc1cnc2nc(N)nc(N)c2n1)c1ccc(C(=O)NC(CCC(N)=O)C(=O)O)cc1 (stereo not drawn)
inactive: endpoint: mean survival time, dose: 1.0 mg/kg/injection, schedule: Q01DX009 (ip), vehicle: sodium bicarbonate 102 % of control | endpoint: mean survival time, dose: 10.0 mg/kg/injection, schedule: Q01DX009 (ip), vehicle: sodium bicarbonate 118 % of control | endpoint: mean survival time, dose: 268.0 mg/kg/injection, schedule: Q04DX003 (ip), vehicle: sodium bicarbonate 114 % of control | endpoint: mean survival time, dose: 400.0 mg/kg/injection, schedule: Q04DX003 (ip), vehicle: sodium bicarbonate 110 % of control
active: endpoint: mean survival time, dose: 50.0 mg/kg/injection, schedule: Q01DX009 (ip), vehicle: sodium bicarbonate 150 % of control | endpoint: mean survival time, dose: 180.0 mg/kg/injection, schedule: Q04DX003 (ip), vehicle: sodium bicarbonate 158 % of control

O=C(O)c1ccc([N+](=O)[O-])cc1P(=O)(O)O
inactive: endpoint: mean survival time, dose: 18.75 mg/kg/injection, schedule: Q01DX009 (ip), vehicle: saline 98 % of control | endpoint: mean survival time, dose: 37.5 mg/kg/injection, schedule: Q01DX009 (ip), vehicle: saline 98 % of control | endpoint: mean survival time, dose: 75.0 mg/kg/injection, schedule: Q01DX009 (ip), vehicle: saline 95 % of control

O=C(Nc1ccccc1)O/N=C(/c1ccccc1)c1ccccn1
inactive: endpoint: mean survival time, dose: 100.0 mg/kg/injection, schedule: Q01DX001 (ip), vehicle: other 104 % of control | endpoint: mean survival time, dose: 200.0 mg/kg/injection, schedule: Q01DX001 (ip), vehicle: other 98 % of control | endpoint: mean survival time, dose: 400.0 mg/kg/injection, schedule: Q01DX001 (ip), vehicle: other 101 % of control

C=CCN(C(C)=O)c1nnc(N(CC=C)C(C)=O)s1
inactive: [4] 100 % of control | [5] 100 % of control | [6] 100 % of control

Cc1cccc[n+]1CC(=O)c1ccc(-c2ccc(C(=O)C[n+]3ccccc3C)cc2)cc1
inactive: endpoint: mean survival time, dose: 0.15 mg/kg/injection, schedule: Q04DX003 (ip), vehicle: Klucel (hydroxypropylcellulose) (HPC) 94 % of control | endpoint: mean survival time, dose: 0.3 mg/kg/injection, schedule: Q04DX003 (ip), vehicle: Klucel (hydroxypropylcellulose) (HPC) 95 % of control | endpoint: mean survival time, dose: 0.6 mg/kg/injection, schedule: Q04DX003 (ip), vehicle: Klucel (hydroxypropylcellulose) (HPC) 97 % of control

CCC[As](=O)(O)CCC
inactive: endpoint: mean survival time, dose: 25.0 mg/kg/injection, schedule: Q01DX009 (ip), vehicle: saline 103 % of control | endpoint: mean survival time, dose: 50.0 mg/kg/injection, schedule: Q01DX009 (ip), vehicle: saline 108 % of control | endpoint: mean survival time, dose: 100.0 mg/kg/injection, schedule: Q01DX009 (ip), vehicle: saline 98 % of control

CCCCn1c(=O)cc(C(=O)O)c2ccccc21
inactive: endpoint: mean survival time, dose: 100.0 mg/kg/injection, schedule: Q01DX009 (ip), vehicle: saline with Tween-80 93 % of control | endpoint: mean survival time, dose: 200.0 mg/kg/injection, schedule: Q01DX009 (ip), vehicle: saline with Tween-80 97 % of control | endpoint: mean survival time, dose: 400.0 mg/kg/injection, schedule: Q01DX009 (ip), vehicle: saline with Tween-80 89 % of control

O=C(O)c1cc2ccccc2oc1=O
inactive: endpoint: mean survival time, dose: 2.5 mg/kg/injection, schedule: Q01DX009 (ip), vehicle: Klucel (hydroxypropylcellulose) (HPC) 103 % of control | endpoint: mean survival time, dose: 5.0 mg/kg/injection, schedule: Q01DX009 (ip), vehicle: Klucel (hydroxypropylcellulose) (HPC) 108 % of control | endpoint: mean survival time, dose: 10.0 mg/kg/injection, schedule: Q01DX009 (ip), vehicle: Klucel (hydroxypropylcellulose) (HPC) 108 % of control | endpoint: mean survival time, dose: 25.0 mg/kg/injection, schedule: Q04DX003 (ip), vehicle: saline with Tween-80 104 % of control | endpoint: mean survival time, dose: 50.0 mg/kg/injection, schedule: Q04DX003 (ip), vehicle: saline with Tween-80 112 % of control

CCN(CC)C1=C(c2ccccc2)C(=O)C(=O)C1c1ccccc1 (stereo not drawn)
inactive: [4] 103 % of control | [5] 107 % of control | [6] 94 % of control

CCN(CC)Cc1cc(Nc2nc(NC3CCC(N(C)C)CC3)c3ccccc3n2)ccc1OC (stereo not drawn)
inactive: endpoint: mean survival time, dose: 12.5 mg/kg/injection, schedule: Q04DX003 (ip), vehicle: saline 103 % of control | [7] 97 % of control | [8] 105 % of control

CCCCNS(=O)(=O)c1ccccc1
inactive: [1] 97 % of control | [2] 96 % of control

Cn1nnc2c(C(N)=O)ncn2c1=O
active: endpoint: median survival time, dose: 25.0 mg/kg/injection, schedule: Q01DX009 (ip), vehicle: saline with Tween-80 151 % of control | endpoint: median survival time, dose: 50.0 mg/kg/injection, schedule: Q01DX009 (ip), vehicle: saline with Tween-80 159 % of control and 168 % of control | endpoint: median survival time, dose: 100.0 mg/kg/injection, schedule: Q01DX009 (ip), vehicle: saline with Tween-80 182 % of control and 193 % of control
inactive: endpoint: median survival time, dose: 6.25 mg/kg/injection, schedule: Q01DX009 (ip), vehicle: saline with Tween-80 111 % of control | endpoint: median survival time, dose: 12.5 mg/kg/injection, schedule: Q01DX009 (ip), vehicle: saline with Tween-80 122 % of control | endpoint: median survival time, dose: 200.0 mg/kg/injection, schedule: Q01DX009 (ip), vehicle: saline with Tween-80 121 % of control and 93 % of control

CCOC(=O)c1ccc(NC(=S)NC(=O)c2ccc(Cl)cc2Cl)cc1
inactive: [1] 100 % of control | [2] 91 % of control | [3] 91 % of control

COC1(c2ccccc2)c2ccccc2C(OC)(c2ccccc2)c2cc(Cl)ccc21 (stereo not drawn)
inactive: endpoint: mean survival time, dose: 100.0 mg/kg/injection, schedule: Q01DX001 (ip), vehicle: Klucel (hydroxypropylcellulose) (HPC) 96 % of control | endpoint: mean survival time, dose: 200.0 mg/kg/injection, schedule: Q01DX001 (ip), vehicle: Klucel (hydroxypropylcellulose) (HPC) 89 % of control

O=C(O)c1c(F)c(F)c(F)c(Br)c1F
inactive: [1] 93 % of control | [2] 93 % of control

CCOC(OCC)c1cc(=O)[nH]c(N)n1
inactive: [9] 103 % of control | [10] 101 % of control | [11] 100 % of control

C#CCOCCCC(=O)O
inactive: endpoint: mean survival time, dose: 100.0 mg/kg/injection, schedule: Q04DX003 (ip), vehicle: acetone 101 % of control | endpoint: mean survival time, dose: 200.0 mg/kg/injection, schedule: Q04DX003 (ip), vehicle: acetone 101 % of control | endpoint: mean survival time, dose: 400.0 mg/kg/injection, schedule: Q04DX003 (ip), vehicle: acetone 95 % of control

CC(C(=O)c1ccccc1)N(C)Cc1ccccc1 (stereo not drawn)
inactive: [8] 98 % of control | [12] 96 % of control | [13] 93 % of control

N#CC1(Nc2ccccc2)CCCCC1
inactive: endpoint: mean survival time, dose: 50.0 mg/kg/injection, schedule: Q01DX009 (ip), vehicle: other 95 % of control | endpoint: mean survival time, dose: 100.0 mg/kg/injection, schedule: Q01DX009 (ip), vehicle: other 102 % of control | [1] 97 % of control | [2] 100 % of control

Cc1c2ncnc-2ncn1O
inactive: [7] 97 % of control | [8] 101 % of control | [12] 104 % of control

ClC12CCC(CC1)C2
inactive: [12] 100 % of control | [13] 94 % of control | [14] 100 % of control

CCCCC(C)(C)C
inactive: [1] 99 % of control | [2] 99 % of control | [3] 114 % of control

CCOC(=O)c1c(C)cc(C)[nH]c1=O
inactive: endpoint: mean survival time, dose: 100.0 mg/kg/injection, schedule: Q04DX003 (ip), vehicle: saline + alcohol 102 % of control | endpoint: mean survival time, dose: 200.0 mg/kg/injection, schedule: Q04DX003 (ip), vehicle: saline + alcohol 107 % of control | endpoint: mean survival time, dose: 400.0 mg/kg/injection, schedule: Q04DX003 (ip), vehicle: saline + alcohol 113 % of control

NCC(=O)Nc1ccc(Cl)cc1C(=O)c1ccc[nH]1
inactive: [9] 89 % of control | [12] 94 % of control | [10] 89 % of control | [13] 94 % of control | [11] 92 % of control | [14] 96 % of control
